The results in this text go back to the supplement of paper PMC10307832.

Holding throughout (experiment): relative viability (nuclei count vs DMSO), 5 days (fraction); higher = more cells survive
Compound in assay [1]: C1/C(=C\C2=CC=CS2)/C(=O)/C(=C/C3=CC=CS3)/C1 + O=C(c1cc(Cc2n[nH]c(=O)c3ccccc23)ccc1F)N1CCN(C(=O)C2CC2)CC1 [Olaparib] (partner 8 µM)
A digest of the protocol:
(§1)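 Lung cancer cell lines were seeded in 1536-well plates and dosed by pin tool the next day, with either a single drug or a fixed anchor-drug dose combined with five library-drug doses (not always all listed) spaced in √10 steps. Five days later, one step fixed the cells and stained their nuclei (final 0.05% Triton X-100, 1% formaldehyde, 1 ug/ml Hoechst), and nuclei were counted on 4× images. Relative viability is the nuclei count in treated wells divided by the count in vehicle wells, and each value is the median of duplicate plates.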

Compound in assay [2]: C[C@]12O[C@H](C[C@]1(O)CO)n1c3ccccc3c3c4c(c5c6ccccc6n2c5c31)CNC4=O [Lestaurtinib] + CC(C)C[C@H](NC(=O)[C@H](Cc1ccccc1)NC(=O)c1cnccn1)B(O)O [Bortezomib] (partner 0.002 µM)
A digest of the protocol: as §1

Compound in the assay “TPCA-1 + Crizotinib”: C1=CC(=CC=C1C2=CC(=C(S2)NC(=O)N)C(=O)N)F [TPCA-1] + C[C@@H](Oc1cc(-c2cnn(C3CCNCC3)c2)cnc1N)c1c(Cl)ccc(F)c1Cl [Crizotinib] (partner 1 µM)
A digest of the protocol: as §1

Compound in assay [3]: C[C@]12O[C@H](C[C@]1(O)CO)n1c3ccccc3c3c4c(c5c6ccccc6n2c5c31)CNC4=O [Lestaurtinib] + Nc1ncn([C@H]2C[C@H](O)[C@@H](CO)O2)c(=O)n1 [Decitabine] (partner 2 µM)
A digest of the protocol:
as §1

For the cell line UMC-11, the relative viability was 0.462 in assay [1] (first compound 0.2 µM); 0.347 in assay [1] (first compound 0.6325 µM); 0.405 in assay [1] (first compound 2 µM); 0.475 in assay [1] (first compound 6.325 µM); 0.391 in assay [1] (first compound 20 µM); 0.602 in assay [2] (first compound 0.005 µM). Moreover, the relative viability in assay [2] (first compound 0.01581 µM) was found to be 0.621; in assay [2] (first compound 0.05 µM), 0.321; in assay [2] (first compound 0.1581 µM), 0.299; in assay [2] (first compound 0.5 µM), 0.171; in the assay with TPCA-1 + Crizotinib (first compound 0.04 µM), 0.579; with TPCA-1 + Crizotinib (first compound 0.1265 µM), 0.586. The relative viability amounted to 0.578 with TPCA-1 + Crizotinib (first compound 0.4 µM); 0.573 in the assay with TPCA-1 + Crizotinib (first compound 1.265 µM); 0.274 with TPCA-1 + Crizotinib (first compound 4 µM); 0.63 in assay [3] (first compound 0.005 µM); 1.49 in assay [3] (first compound 0.01581 µM); 0.544 in assay [3] (first compound 0.05 µM). Moreover, the figures for the relative viability in assay [3] (first compound 0.1581 µM) and in assay [3] (first compound 0.5 µM) were 0.241 and 0.218, respectively.
